# According to patent US11590129B2, “Combination therapy with an antitumor alkaloid” (PHARMA MAR, S.A., priority 2010, dated 2023):
# Tests used:
# [1] = system: HepG2 human hepatocellular liver carcinoma cell line; experiment: MTT cytotoxicity assay in HepG2 cells: IC50 of single agents and combinations with PM01183; assay type: cell-based; conditions: Homo sapiens; HepG2, 72 hours drug exposure, MTT; read-out: IC50
# [2] = system: HT-29 human colon adenocarcinoma cell line; experiment: cells; conditions: Homo sapiens, HT-29, 72 h
# Method in brief: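 HT-29 cells (5,000/well) were attached for 24 h, then exposed to vehicle or compounds for 72 h. Viability was read by MTT reduction, with 8 h MTT at 37° C and formazan dissolved in DMSO. Values are % of control cell growth.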
# [3] = system: IGROV-1 human ovarian adenocarcinoma cell line; experiment: cells; conditions: Homo sapiens, IGROV-1, 72 h
# [4] = system: PANC-1 human pancreatic carcinoma cell line; experiment: cells; conditions: Homo sapiens, PANC-1, 72 h
# Description: (§1) a. […] Briefly, cells were harvested and seeded in 96 well microtiter plates at a density of 5,000 cells in 150 μL of culture medium and incubated for 24 hours in drug-free medium before treatment with vehicle alone or test compounds for 72 h.
# (§2) The cytotoxic effect was measured by the MTT reduction assay, in which 3-(4,5-Dimethylthiazol-2-yl)-2,5-diphenyltetrazolium bromide, a tetrazole, which is reduced to purple formazan in the mitochondria of living cells, was used. MTT (50 μL of 1 mg/mL stock solution) was added to the wells and incubated for 8 hours at 37° C. until formazan crystals were formed. After gently removing the culture medium, DMSO was added to dissolve the insoluble purple formazan product into a colored solution. […] Results were expressed as percentage of control cell growth.
# (§3) b. In a second set of assays, A549 human tumor cells were incubated with PM01183 in combination with each of the agents mentioned above.
# (§4) As a visual aid, response values were plotted on a scatter plot with dose ratios given on the x-axis and % response values on the y-axis. […] In cases where response values at the two endpoints were approximately equivalent, points lying above or below this predicted line of additivity could be interpreted as representing antagonistic or synergistic drug interaction, respectively.
# (§5) Additional serial dilutions were prepared in serum-free culture medium to achieve a final 4× concentration. Aliquots of 50 μL of each diluted compound were added per well.
# PANC-1 was the human pancreatic carcinoma cell line selected for this assay.
# SW1990 tumors = experiment: Human pancreatic tumor xenografts (SW1990) in athymic nude mice, tumor volume % T/C; assay type: in vivo
# Description: Female athymic nude mice (Harlan Laboratories Models, S.L. (Barcelona, Spain) were utilized for all experiments. Animals were housed in individually ventilated cages, up to ten per cage in a 12-hour light-dark cycle at 21-23° C. and 40-60% humidity. The mice were allowed free access to irradiated standard rodent diet and sterilized water. Animals were acclimated for at least 5 days prior to tumor implantation with a tumor cell suspension.
# Each animal was subcutaneously implanted on the right flank, using 26G needle and a 1 cc syringe, with 5×10^6 SW1990 cells, from in vitro passage 12, in 0.05 mL suspension of 50% Matrigel and 50% serum free medium, without antibiotics.
# PM01183 was provided in the form of vials of lyophilized PM01183 cake which was reconstituted with water for infusion to a concentration of 0.2 mg/mL. The PM01183 stock solution was further diluted in 5% glucose solution for injection to the dosing formulation concentrations.
# Dose level groups were administered either as single agents or in combination.
# Comparison of the median tumor volume in the treatment groups (T) to the median tumor volume in the control group (T/C×100%) was used for evaluation of the antitumor efficacy.
# [5] = system: RAMOS human lymphoma cell line; experiment: cells; conditions: Homo sapiens, Ramos, 72 h
# Description: (§6) Briefly, cells were seeded in 96 well microtiter plates at a density of 50000 cells per well in 150 μL of culture medium and incubated for 4-6 hours in drug-free medium before treatment with vehicle alone or test compounds for 72 hours.
# (§7) After incubation, the cytotoxic effect was evaluated using a MTT reduction assay. 50 μL of MTT solution (1 mg/mL) were added to the wells and incubated for 15-17 hours at 37° C. until formazan crystals were formed. After gently removing the culture medium, DMSO was added to dissolve the insoluble purple formazan product into a colored solution. […] Results were expressed as percentage of control cell growth. The EC50 values (half-maximal effective concentration) used for the combination studies were calculated using Prism v5.02 software (GraphPad). EC50 was expressed as molar concentration and represented the mean of at least three independent assays.
# (§8) Using these starting concentrations, constant serial dilutions were performed to generate the concentration-response curves for each set of drugs, alone and in combination.
# (§9) Based on this equation, the term “combination index” (CI) is used as a quantitative measure of the degree of drug interactions. […] CI values were calculated by solving the equation for different values of fa (i.e., for different degrees of cell groth inhibition).
# (§10) Data were analyzed using CalcuSyn software (Biosoft, Cambridge, UK). For statistical analysis and graphs Prism software (GraphPad, San Diego, USA) was used. All the results represent the mean of at least three independent experiments.
# as §5
# (§11) In the second set of assays, concentration-response curves for the agents tested, both alone and in two-drug combination, were performed.
# [6] = system: U-937 human lymphoma cell line; experiment: cells; conditions: Homo sapiens, U-937, 72 h
# Description: as §6, §7, §8, §9, §10, §5, §11
# [7] = system: HGC-27 human gastric carcinoma cell line; experiment: cells; conditions: Homo sapiens, HGC-27, 72 h
# [8] = system: MDA-MB-231 human breast adenocarcinoma cell line; experiment: cells; conditions: Homo sapiens, MDA-MB-231, 72 h
# [9] = system: RXF-393 human kidney carcinoma cell line; experiment: cells; conditions: Homo sapiens, RXF 393, 72 h
# [10] = system: A673 human rhabdomyosarcoma cell line; experiment: cells; conditions: Homo sapiens, A673, 72 h
# Method in brief: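 A673 cells seeded at 5,000 per well, grown 24 h drug-free, then exposed to compounds for 72 h. Viability by MTT reduction (8 h, 37 °C), formazan dissolved in DMSO. Results expressed as percentage of control cell growth.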
# [11] = system: U87-MG human glioblastoma cell line; experiment: cells; conditions: Homo sapiens, U-87 MG, 72 h
# [12] = system: PC-3 human prostate cancer cell line; experiment: cells; conditions: Homo sapiens, PC-3, 72 h
# Method in brief: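 Cells seeded at 5,000/well, grown 24 h drug-free, then exposed to vehicle or test compounds for 72 h. Viability by MTT reduction (8 h, 37 °C), formazan dissolved in DMSO. Values given as percentage of control cell growth.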
# [13] = system: A549 human lung carcinoma cell line; experiment: MTT cytotoxicity assay in A549 cells: IC50 of single agents and combinations with PM01183; assay type: cell-based; conditions: Homo sapiens; A549, 72 hours drug exposure, MTT; read-out: IC50
# Method in brief: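 A549 cells seeded at 5,000 per well, grown 24 h drug-free, then exposed to vehicle or compounds for 72 h, either singly or combined with PM01183. Combination responses plotted against dose ratio relative to an additivity line.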
# [14] = system: JURKAT human leukemia cell line; experiment: cells; conditions: Homo sapiens, Jurkat, 72 h
# Description: as §5
# (§12) JURKAT and MOLT-4 were the human leukemia cell lines selected for this assay, which were obtained from the American Type Culture Collection (ATCC).
# as §6, §7
# (§13) b. In a second set of experiments, concentration-response curves for the agents tested, both alone and in two-drug combination, were performed, using the same methodology described in the previous paragraph.
# as §8, §9, §10
# [15] = system: MOLT-4 human leukemia cell line; experiment: cells; conditions: Homo sapiens, MOLT-4, 72 h
# Description: as §5, §12, §6, §7, §13, §8, §9, §10
# [16] = system: SK-MEL-2 human melanoma cell line; experiment: cells; conditions: Homo sapiens, SK-MEL-2, 72 h
# Description: as §1, §2, §3, §4, §5
# SK-MEL-2 was the human melanoma cell line selected for this assay.
# [17] = gemcitabine 45.0 mg/kg iv days 0,7,14
# [18] = gemcitabine 90.0 mg/kg iv days 0,7,14
# [19] = gemcitabine 135.0 mg/kg iv days 0,7,14
# [20] = gemcitabine 180.0 mg/kg iv days 0,7,14
compound,measurement,setting,value
"Nc1ccn([C@@H]2O[C@H](CO)[C@@H](O)C2(F)F)c(=O)n1 [Gemcitabine, gemcitabine]",IC50,[1],5.34 nM
same,IC50,[2],400 nM
same,IC50,[3],6.34 nM
same,IC50,[4],1000 nM
same,% T/C on day 0,SW1990 tumors; [17],102.3%
same,% T/C on day 3,SW1990 tumors; [17],85.5%
same,% T/C on day 6,SW1990 tumors; [17],70.3%
same,% T/C on day 8,SW1990 tumors; [17],70.5%
same,% T/C on day 10,SW1990 tumors; [17],63.3%
same,% T/C on day 13,SW1990 tumors; [17],64.8%
same,% T/C on day 15,SW1990 tumors; [17],63.1%
same,% T/C on day 17,SW1990 tumors; [17],58.5%
same,% T/C on day 20,SW1990 tumors; [17],58.7%
same,% T/C on day 22,SW1990 tumors; [17],57.3%
same,% T/C on day 24,SW1990 tumors; [17],65.2%
same,% T/C on day 28,SW1990 tumors; [17],59.3%
same,% T/C on day 0,SW1990 tumors; [18],103.8%
same,% T/C on day 3,SW1990 tumors; [18],70.0%
same,% T/C on day 6,SW1990 tumors; [18],73.8%
same,% T/C on day 8,SW1990 tumors; [18],63.3%
same,% T/C on day 10,SW1990 tumors; [18],55.6%
same,% T/C on day 13,SW1990 tumors; [18],54.8%
same,% T/C on day 15,SW1990 tumors; [18],49.9%
same,% T/C on day 20,SW1990 tumors; [18],47.6%
same,% T/C on day 22,SW1990 tumors; [18],47.0%
same,% T/C on day 24,SW1990 tumors; [18],45.9%
same,% T/C on day 28,SW1990 tumors; [18],49.2%
same,% T/C on day 0,SW1990 tumors; [19],102.3%
same,% T/C on day 3,SW1990 tumors; [19],78.3%
same,% T/C on day 6,SW1990 tumors; [19],71.9%
same,% T/C on day 8,SW1990 tumors; [19],63.7%
same,% T/C on day 10,SW1990 tumors; [19],55.4%
same,% T/C on day 13,SW1990 tumors; [19],52.7%
same,% T/C on day 15,SW1990 tumors; [19],54.8%
same,% T/C on day 17,SW1990 tumors; [19],51.2%
same,% T/C on day 20,SW1990 tumors; [19],49.5%
same,% T/C on day 22,SW1990 tumors; [19],48.7%
same,% T/C on day 24,SW1990 tumors; [19],49.8%
same,% T/C on day 28,SW1990 tumors; [19],49.5%
same,% T/C on day 0,SW1990 tumors; [20],102.2%
same,% T/C on day 3,SW1990 tumors; [20],84.1%
same,% T/C on day 6,SW1990 tumors; [20],73.9%
same,% T/C on day 8,SW1990 tumors; [20],66.1%
same,% T/C on day 10,SW1990 tumors; [20],60.9%
same,% T/C on day 13,SW1990 tumors; [20],59.4%
same,% T/C on day 15,SW1990 tumors; [20],58.5%
same,% T/C on day 17,SW1990 tumors; [20],52.1%
same,% T/C on day 20,SW1990 tumors; [20],49.1%
same,% T/C on day 22,SW1990 tumors; [20],48.6%
same,% T/C on day 24,SW1990 tumors; [20],46.9%
same,% T/C on day 28,SW1990 tumors; [20],39.3%
same,EC50,[5],25.1 nM
same,EC50,[6],32.7 nM
same,IC50,[7],0.534 nM
same,IC50,[8],8.5 nM
same,IC50,[9],500 nM
same,IC50,[10],0.434 nM
same,IC50,[11],450 nM
same,IC50,[12],400 nM
same,IC50,[13],0.28 nM
COc1c(C)cc2c(c1O)[C@@H]1[C@@H]3Cc4c(OC(C)=O)c(C)c5c(c4[C@H](CNC(=O)/C=C/c4cccc(C(F)(F)F)c4)N3[C@@H](O)[C@H](C2)N1C)OCO5 [PM00104],IC50,[1],3 nM
same,IC50,[3],3.3 nM
same,IC50,[4],7.89 nM
same,EC50,[14],4.83 nM
same,EC50,[15],1.55 nM
same,EC50,[5],4.35 nM
same,EC50,[6],4.5 nM
same,IC50,[7],3.2 nM
same,IC50,[8],1 nM
same,IC50,[9],5.4 nM
same,IC50,[10],3 nM
same,IC50,[12],7.1 nM
same,IC50,[16],2 nM
same,IC50,[13],7 nM
"COc1cccc2c1C(=O)c1c(O)c3c(c(O)c1C2=O)C[C@@](O)(C(C)=O)C[C@@H]3O[C@H]1C[C@H](N)[C@H](O)[C@H](C)O1 [Daunorubicin, daunorubicin]",IC50,[1],300 nM
same,IC50,[2],532 nM
same,IC50,[3],355 nM
same,IC50,[4],869 nM
same,EC50,[14],792 nM
same,EC50,[5],315 nM
same,EC50,[6],304 nM
same,IC50,[7],372 nM
same,IC50,[8],370 nM
same,IC50,[9],620 nM
same,IC50,[10],520 nM
same,IC50,[11],284 nM
same,IC50,[12],1150 nM
same,IC50,[16],177 nM
same,IC50,[13],355 nM
